# Assay results published in US10675253B2, “Methods of diagnosis and treatment involving nitrite” (Board of Supervisors of Louisiana State University and …, priority 2017, dated 2020).
# Like-named read-outs stand apart in the source and are kept apart here.
# Tests used:
# [1] = target: xanthine oxidase (XO) (Homo sapiens, UniProt P47989); assay: XO dependent nitrite reduction to NO / XO activity; assay type: biochemical
# Source text: Referring to FIGS. 1-8, a further embodiment of the disclosed invention, including a method of treatment of various conditions by increasing XO associated nitrite conversion to nitric oxide is described. This embodiment of the disclosed invention describes chemical reactions that may be useful for stimulating xanthine oxidase (XO) to increase nitrite conversion to nitric oxide, namely diallyl trisulfide (DATS) stimulation of XO reduction of nitrite to nitric oxide. This would be useful for various purposes including unique ways to stimulate nitrite reduction to nitric oxide within an organism.
# DATS may therefore be administered alone, or for example, with nitrite and/or XO, as a therapeutic for known NO mediated conditions, including inflammation, wound healing, and infections. DATS can be administered in a variety of methods, including nanoformulation compounds, especially for creams or lotions.
# [2] = nitrite reduction to NO facilitated by ascorbic acid, DADS, or DATS; conditions: FIGS. 4, 6; over one hour
# Source text: FIG. 4 is a line graph of experiments showing nitrite reduction to NO facilitated by ascorbic acid, DADS, or DATS;
# FIG. 5 is a pair of line graphs of two experiments showing nitrite reduction to NO facilitated by ascorbic acid over one hour;
# FIG. 6 is a pair of line graphs of two experiments showing nitrite reduction to NO facilitated by DADS over one hour;
# FIG. 7 is a pair of line graphs of two experiments showing nitrite reduction to NO facilitated by DATS over one hour;
# Turning to FIGS. 1-7, an embodiment of the disclosed invention, including a method of treatment of various conditions by increasing nitrite conversion to nitric oxide via DADS is described. This embodiment of the disclosed invention describes chemical reactions that may be useful for stimulating nitrite conversion to nitric oxide, namely diallyl disulfide (DADS) reduction of nitrite to nitric oxide. […] This would be useful for various purposes including unique ways to stimulate nitrite reduction to nitric oxide within an organism.
# While it has been shown that increasing NO levels can be therapeutic for a number of conditions, the biochemical mechanism of nitrite reduction to NO, and thereby increasing NO levels, is poorly understood. Some agents can facilitate such reduction, such as ascorbic acid, but do so weakly. […]
# [3] = ascorbic acid as comparison agent; general statement; cited from earlier work
# Sequence of xanthine oxidase (XO) (P47989 whole entry, species assumed): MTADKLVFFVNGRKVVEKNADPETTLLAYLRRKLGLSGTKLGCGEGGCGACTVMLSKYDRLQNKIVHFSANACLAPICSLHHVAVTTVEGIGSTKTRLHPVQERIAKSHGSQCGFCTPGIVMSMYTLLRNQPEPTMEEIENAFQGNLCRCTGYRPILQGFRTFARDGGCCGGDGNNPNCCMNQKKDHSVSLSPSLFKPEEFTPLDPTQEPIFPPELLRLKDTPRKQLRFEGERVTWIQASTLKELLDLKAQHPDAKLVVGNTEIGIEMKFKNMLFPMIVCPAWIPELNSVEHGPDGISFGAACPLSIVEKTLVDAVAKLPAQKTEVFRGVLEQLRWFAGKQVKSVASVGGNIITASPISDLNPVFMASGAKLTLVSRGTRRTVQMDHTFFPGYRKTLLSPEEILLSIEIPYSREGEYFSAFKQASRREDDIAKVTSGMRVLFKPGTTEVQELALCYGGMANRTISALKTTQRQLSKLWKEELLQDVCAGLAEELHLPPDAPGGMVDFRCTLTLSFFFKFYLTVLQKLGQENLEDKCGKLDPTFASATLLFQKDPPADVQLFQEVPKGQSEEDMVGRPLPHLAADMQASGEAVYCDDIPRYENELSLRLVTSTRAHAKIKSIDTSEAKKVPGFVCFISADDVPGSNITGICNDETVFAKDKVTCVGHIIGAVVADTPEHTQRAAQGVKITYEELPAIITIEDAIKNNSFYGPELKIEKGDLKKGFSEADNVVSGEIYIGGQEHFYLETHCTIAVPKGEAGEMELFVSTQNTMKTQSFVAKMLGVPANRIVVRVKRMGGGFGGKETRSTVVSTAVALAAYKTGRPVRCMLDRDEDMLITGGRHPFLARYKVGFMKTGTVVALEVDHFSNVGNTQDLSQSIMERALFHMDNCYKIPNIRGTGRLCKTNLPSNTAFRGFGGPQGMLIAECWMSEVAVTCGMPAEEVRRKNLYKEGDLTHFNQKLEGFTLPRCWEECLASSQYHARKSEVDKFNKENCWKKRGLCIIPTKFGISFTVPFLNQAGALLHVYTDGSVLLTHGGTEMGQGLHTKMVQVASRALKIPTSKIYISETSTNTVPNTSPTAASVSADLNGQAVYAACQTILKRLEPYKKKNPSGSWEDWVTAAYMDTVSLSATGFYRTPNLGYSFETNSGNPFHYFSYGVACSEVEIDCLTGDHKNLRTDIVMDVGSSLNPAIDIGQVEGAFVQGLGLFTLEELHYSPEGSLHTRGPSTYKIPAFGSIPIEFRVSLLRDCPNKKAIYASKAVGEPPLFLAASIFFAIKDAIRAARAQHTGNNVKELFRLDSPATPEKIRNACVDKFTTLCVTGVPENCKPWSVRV
structure (smiles),measurement,setting,value
"C=CCSSSCC=C [DATS, diallyl trisulfide]",XO dependent nitrite reduction to NO,[1],selectively increases XO dependent nitrite reduction to NO
same,XO activity & NO production,[1]; FIG. 8,differentially affects XO activity & NO production
"C=CCSSCC=C [DADS, diallyl disulfide]",nitrite reduction to NO,[2],selectively stimulate nitrite reduction to NO
O=C1O[C@H]([C@@H](O)CO)C(O)=C1O [ascorbic acid],nitrite reduction to NO,[3],weakly
